In PubChem BioAssay (NCI):
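Where inhibition never reached the appropriate level, the endpoint shown equals the highest concentration tested. Otherwise, values were interpolated linearly from a five-concentration, 48-hour dose response in 96-well plates. GI50 = concentration required for 50% inhibition of growth. At the TGI there is no net growth.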 Where a SMILES comes first, the peptide text is derived from it. [ ]: non-standard residue; d: D form. The star is where a group is joined. ξ: configuration not given here. X3 = COc1ccc(C(N*)c2ccc(OC)cc2)cc1; NMeF = CN[C@@H](Cc1ccccc1)C(=O)O; NMeD = CN[C@@H](CC(=O)O)C(=O)O; NMeV = CN[C@H](C(=O)O)C(C)C; ξNMeV = CNC(C(=O)O)C(C)C; Boc = CC(C)(C)OC(=O)*; ξNMeA = CNC(C)C(=O)O; ξV = CC(C)C(N)C(=O)O

What was measured:
Experiment in all cases: NCI tumour cell line growth inhibition, 48 h
[1] = tested on: DLD-1 colon
[2] = tested on: SNB-78 CNS
[3] = tested on: DMS 273 small cell lung
[4] = tested on: DMS 114 small cell lung
[5] = tested on: XF 498 CNS
[6] = tested on: M19-MEL melanoma
[7] = tested on: HOP-18 NSCLC
[8] = tested on: MDA-N
[9] = tested on: RXF-631 renal
[10] = tested on: SN12K1 renal

SMILES	TGI [1] [µM]	TGI [2] [µM]	TGI [3] [µM]	TGI [4] [µM]	TGI [5] [µM]	TGI [6] [µM]	TGI [7] [µM]	TGI [8] [µM]	TGI [9] [µM]	GI50 [1] [µM]	GI50 [3] [µM]	GI50 [4] [µM]	GI50 [5] [µM]	GI50 [6] [µM]	GI50 [9] [µM]	TGI [10] [µM]
S=c1sc2c(n1-c1ccccc1)NC=NC2S (stereo unspecified)	> 100	> 100	> 100	> 100	> 100	> 100	92.1	–	–	–	–	–	–	–	–	–
COc1nc(NC2OC(COC(C)=O)C(OC(C)=O)C(OC(C)=O)C2OC(C)=O)c2c(OC(C)=O)cc(=O)oc2n1 (stereo unspecified)	> 100	> 100	> 100	> 100	> 100	> 100	> 100	–	–	–	–	–	–	–	–	–
O=C(O)c1ccc2c(c1C(=O)O)C(=O)OC2(c1ccc(O)cc1)c1ccc(O)cc1	–	–	–	–	–	–	–	> 100	–	–	–	–	–	–	–	–
N#C/C(=C\c1cccc(Cl)c1Cl)c1ccccc1	> 100	> 100	> 54.1	> 73.1	> 57.4	> 100	> 90.4	–	> 100	–	–	–	–	–	–	–
CC(C)(C)c1cc2c(O)c3cccc4c(=O)c5cccc6c5-c(c34)c2c(c1)c6=O	> 100	–	> 100	–	88.5	> 100	> 100	–	–	–	–	–	–	–	–	–
Cc1cccc(C)c1NC(=O)CCCC(=O)C1/C(=N/NC(=O)CC#N)CCC/C1=N\NC(=O)CC#N (stereo unspecified)	> 100	> 100	> 100	> 100	> 100	> 100	> 100	–	> 100	–	–	–	–	–	–	–
O=C(/C=C/c1ccc([N+](=O)[O-])cc1)c1ccc(NCc2nc3ccccc3[nH]2)cc1	15.7	29	13.6	7.44	20.2	15.3	31.3	–	19.7	–	–	–	–	–	–	–
O=S(=O)(c1ccccc1)N1CCN(S(=O)(=O)c2ccccc2)c2ccccc21	–	–	–	–	–	–	–	> 100	–	–	–	–	–	–	–	–
C=CC[C@H](C[C@H](C[C@H](C[C@H](C[C@H](C[C@H](C[C@H](C[C@H](C[C@H](C[C@H](CCCCC)OC)OC)OC)OC)OC)OC)OC)OC)OC)OC	> 100	> 100	> 100	> 100	> 100	> 100	> 100	–	–	–	–	–	–	–	–	–
C/C(=N/Nc1ccc([N+](=O)[O-])cc1[N+](=O)[O-])C(CC(C(=O)NCc1ccccc1)/C(C)=N\Nc1ccc([N+](=O)[O-])cc1[N+](=O)[O-])C(=O)NCc1ccccc1 (stereo unspecified)	29.4	31	20.4	23.8	–	23.9	9.48	–	20	–	–	–	–	–	–	–
C=C(C)CCOC(c1ccccc1)(c1ccccc1)c1ccccc1	> 100	> 100	–	–	90.3	> 100	–	–	> 100	–	–	–	–	–	–	–
CCc1c(OC(C)=O)c2c(NC3OCC(OC(C)=O)C(OC(C)=O)C3OC(C)=O)nc(SC)nc2oc1=O (stereo unspecified)	> 100	> 100	–	–	> 100	> 100	> 100	–	> 100	–	–	–	–	–	–	–
O=c1ccc2ccccc2cc1[O-].O=c1ccc2ccccc2cc1[O-].[O]=[U+2]=[O]	> 100	–	> 100	55.3	40	96.7	–	–	41.6	19.5	6.71	19.9	19.5	24.8	11.1	–
CN(C)CC1CC/C(=C\c2ccc(O)cc2)C1=O (stereo unspecified)	6.27	17.9	9.68	23.5	11.3	7.55	15.9	6.8	–	–	–	–	–	–	–	3.4
O=C(Nc1ccccc1-c1nn(C(=S)Nc2ccccc2)c(=S)n(C(=S)Nc2ccccc2)c1=O)C(F)(F)F	> 100	> 100	> 100	38.9	61.5	> 94.9	> 100	–	–	–	–	–	–	–	–	–
Oc1[nH]c2ccccc2c1N=Nc1nc(-c2ccc(Br)cc2)cs1	–	–	–	–	–	–	–	> 100	–	–	–	–	–	–	–	–
COc1ccc(C(NC(=O)C[C@@H](C(=O)N(C)C(C)C(=O)O)N(C)C(=O)[C@@H]2CCCN2C(=O)[C@H](C(C)C)N(C)C(=O)C(C(C)C)N(C)C(=O)[C@H](Cc2ccccc2)N(C)C(=O)C(NC(=O)OC(C)(C)C)C(C)C)c2ccc(OC)cc2)cc1 (stereo partly specified) (Boc-[ξV][NMeF][ξNMeV][NMeV]P[NMeD](X3)[ξNMeA]-OH)	32.1	36.5	30.9	33.4	29.5	34.4	–	32.7	–	–	–	–	–	–	–	–
